The text below walks through data of patent publication EP4740948A1 (Dong Wha Pharm. Co., Ltd., priority 2023, dated 2025).

One assay deals with EZH1 (Homo sapiens, UniProt Q92800). Kind of assay: AlphaLISA enzyme activity inhibition, EZH1. The note with it: for inhibition at 0.005 µM: 5nM test substance; for inhibition at 0.01 µM: 10nM test substance. Format: biochemical. The method in brief: (§1)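 EZH1 or EZH2 was mixed with compound at 5 nM or 10 nM final in 20 mM Tris pH 8.0, 0.1% BSA, 0.5 mM DTT, then histone H3 peptide and SAM were added. After 2 h reaction, AlphaLISA acceptor and donor beads detected methylation; inhibition rate was calculated against DMSO control.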
For orientation: In Alpha technology, singlet oxygen from a donor bead excites a nearby acceptor bead.

In another assay the target is EZH2 (Homo sapiens, UniProt Q15910). Kind of assay: AlphaLISA enzyme activity inhibition, EZH2. Format: biochemical. Particulars: for inhibition at 0.01 µM: 10nM test substance. Summed up: as §1
In a further assay the test system is Lovo cells. Kind of assay: Cancer cell proliferation inhibition (Cell Counting Kit-8), colorectal cancer cell line. The note with it: 1000 nM, cultured seven to 11 days; for inhibition at 1 µM: Homo sapiens, LoVo, 264 h, read-out: % inhibition rate LoVo; for % inhibition rate LoVo: 1 µM. Format: cell-based. The method in brief: (§2)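 Cells grown in RPMI1640, McCoy's 5a, L-15 or DMEM with 10% fetal bovine serum, seeded at 100 to 1,000 cells per well, then exposed to test compound at 1000 nM for seven to 11 days. Viability read by CCK-8; % inhibition = {1−(test/control)} × 100.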

A further assay relates to G401 cells. Kind of assay: Cancer cell proliferation inhibition (Cell Counting Kit-8), rhabdoid tumor cell line. Particulars: 1000 nM, cultured seven to 11 days; for inhibition at 1 µM: Homo sapiens, G-401, 264 h, read-out: % inhibition rate G401; for % inhibition rate G401: 1 µM. Format: cell-based. The method in brief:
(§3)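 Cells grown in RPMI1640, McCoy's 5a, L-15 or DMEM with 10% FBS, seeded at 100 to 1,000 cells/well and treated with test substance at 1000 nM for 7 to 11 days. Viability read by CCK-8; % inhibition = {1−(test/control)} × 100.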
Background: Tetrazolium dyes change colour on reduction, which living cells bring about.

The next assay concerns MKN-45 cells. Put plainly: Cancer cell proliferation inhibition (Cell Counting Kit-8), gastric cancer cell line. Format: cell-based. Particulars: Homo sapiens, MKN-45, 264 h, 1000 nM, cultured seven to 11 days; read-out: % inhibition rate MKN -45. Summed up:
as §3

The next assay deals with SW-13 cells. Kind of assay: Cancer cell proliferation inhibition (Cell Counting Kit-8), adrenal cancer cell line. Format: cell-based. Particulars: Homo sapiens, SW13, 264 h, 1000 nM, cultured seven to 11 days; read-out: % inhibition rate SW-13. The method in brief: as §2
Another assay relates to MIA-PaCa-2 cells. Kind of assay: Cancer cell proliferation inhibition (Cell Counting Kit-8), pancreatic cancer cell line. Format: cell-based. Particulars: Homo sapiens, MIA PaCa-2, 264 h, 1000 nM, cultured seven to 11 days; read-out: % inhibition rate MIA-Paca2. Summed up: as §2
A further assay relates to NCI-H1299 cells. Put plainly: Cancer cell proliferation inhibition (Cell Counting Kit-8), lung cancer cell line. Format: cell-based. Particulars: Homo sapiens, NCI-H1299, 264 h, 1000 nM, cultured seven to 11 days; read-out: % inhibition rate NCI-H129 9. Summed up: as §2

A value given as a limit tells only on which side of the number the result lay.

Chain of EZH1 (Q92800 whole entry, species assumed): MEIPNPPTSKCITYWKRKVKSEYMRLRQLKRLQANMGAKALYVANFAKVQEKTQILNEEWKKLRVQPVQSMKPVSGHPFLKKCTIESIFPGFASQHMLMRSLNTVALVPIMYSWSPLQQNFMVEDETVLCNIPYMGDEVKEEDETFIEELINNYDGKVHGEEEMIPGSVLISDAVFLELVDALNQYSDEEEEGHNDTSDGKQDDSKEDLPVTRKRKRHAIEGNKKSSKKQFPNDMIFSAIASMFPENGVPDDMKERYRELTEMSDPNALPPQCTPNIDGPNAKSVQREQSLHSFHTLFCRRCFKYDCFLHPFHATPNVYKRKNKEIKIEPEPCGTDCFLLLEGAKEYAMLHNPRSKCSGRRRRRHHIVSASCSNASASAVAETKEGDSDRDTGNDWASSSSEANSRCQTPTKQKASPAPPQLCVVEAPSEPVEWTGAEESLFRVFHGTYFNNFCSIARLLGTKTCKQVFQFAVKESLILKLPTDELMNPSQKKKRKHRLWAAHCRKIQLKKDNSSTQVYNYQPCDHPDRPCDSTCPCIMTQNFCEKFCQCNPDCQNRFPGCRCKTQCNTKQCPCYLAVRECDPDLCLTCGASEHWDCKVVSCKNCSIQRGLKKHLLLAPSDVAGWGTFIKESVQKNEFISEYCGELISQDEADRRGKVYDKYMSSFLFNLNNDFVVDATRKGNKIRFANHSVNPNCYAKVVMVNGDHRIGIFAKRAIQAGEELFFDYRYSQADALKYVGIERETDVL
Chain of EZH1 (O75530 whole entry partner, species assumed): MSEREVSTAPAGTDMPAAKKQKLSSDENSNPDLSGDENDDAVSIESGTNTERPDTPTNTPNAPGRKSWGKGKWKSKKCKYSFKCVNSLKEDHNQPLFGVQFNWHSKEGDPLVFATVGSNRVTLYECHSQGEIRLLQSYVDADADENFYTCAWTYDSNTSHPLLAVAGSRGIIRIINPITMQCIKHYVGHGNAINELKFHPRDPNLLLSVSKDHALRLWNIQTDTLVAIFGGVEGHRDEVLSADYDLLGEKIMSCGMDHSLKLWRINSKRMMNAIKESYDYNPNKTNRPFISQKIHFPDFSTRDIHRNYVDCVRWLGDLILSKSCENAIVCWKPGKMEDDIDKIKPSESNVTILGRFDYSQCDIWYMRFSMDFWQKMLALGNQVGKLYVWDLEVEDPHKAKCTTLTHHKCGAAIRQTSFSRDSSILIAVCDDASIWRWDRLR
Chain of EZH1 (Q15022 whole entry partner, species assumed): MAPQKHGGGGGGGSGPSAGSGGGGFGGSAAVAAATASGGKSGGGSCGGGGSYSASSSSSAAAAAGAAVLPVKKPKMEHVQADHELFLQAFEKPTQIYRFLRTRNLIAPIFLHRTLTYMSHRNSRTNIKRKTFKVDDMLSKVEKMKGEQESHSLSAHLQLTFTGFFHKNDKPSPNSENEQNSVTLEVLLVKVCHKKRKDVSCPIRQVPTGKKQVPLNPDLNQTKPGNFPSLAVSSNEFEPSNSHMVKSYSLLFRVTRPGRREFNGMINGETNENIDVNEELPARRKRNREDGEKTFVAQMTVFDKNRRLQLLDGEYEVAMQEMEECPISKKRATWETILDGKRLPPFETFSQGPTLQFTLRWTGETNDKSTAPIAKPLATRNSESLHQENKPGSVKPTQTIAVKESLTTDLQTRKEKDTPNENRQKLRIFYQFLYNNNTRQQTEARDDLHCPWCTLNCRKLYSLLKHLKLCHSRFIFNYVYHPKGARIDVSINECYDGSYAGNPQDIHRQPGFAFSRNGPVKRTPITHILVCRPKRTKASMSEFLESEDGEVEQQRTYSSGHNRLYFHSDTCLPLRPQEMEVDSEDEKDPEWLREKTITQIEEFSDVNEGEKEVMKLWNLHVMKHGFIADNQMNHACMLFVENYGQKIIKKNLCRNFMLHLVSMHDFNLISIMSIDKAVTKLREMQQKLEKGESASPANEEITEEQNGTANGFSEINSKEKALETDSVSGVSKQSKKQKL
Chain of EZH2 (Q15910 whole entry, species assumed): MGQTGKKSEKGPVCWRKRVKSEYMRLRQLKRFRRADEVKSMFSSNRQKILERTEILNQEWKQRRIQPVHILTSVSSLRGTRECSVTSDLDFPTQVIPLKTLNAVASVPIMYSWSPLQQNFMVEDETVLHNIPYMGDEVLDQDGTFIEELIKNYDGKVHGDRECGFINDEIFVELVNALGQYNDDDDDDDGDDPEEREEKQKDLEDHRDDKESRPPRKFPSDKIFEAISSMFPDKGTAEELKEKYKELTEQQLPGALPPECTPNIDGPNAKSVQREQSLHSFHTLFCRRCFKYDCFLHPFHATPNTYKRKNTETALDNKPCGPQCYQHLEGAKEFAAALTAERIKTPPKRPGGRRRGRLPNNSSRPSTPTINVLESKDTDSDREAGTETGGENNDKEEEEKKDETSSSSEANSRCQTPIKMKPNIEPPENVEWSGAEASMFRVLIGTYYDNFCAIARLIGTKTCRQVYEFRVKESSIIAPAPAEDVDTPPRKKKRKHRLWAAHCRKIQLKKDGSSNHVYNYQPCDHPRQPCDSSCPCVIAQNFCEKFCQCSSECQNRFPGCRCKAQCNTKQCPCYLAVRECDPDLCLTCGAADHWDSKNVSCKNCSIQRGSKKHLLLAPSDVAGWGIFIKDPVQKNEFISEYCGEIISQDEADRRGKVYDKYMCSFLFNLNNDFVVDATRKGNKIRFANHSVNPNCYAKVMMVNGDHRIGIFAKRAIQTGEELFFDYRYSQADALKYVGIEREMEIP
Chain of EZH2 (O75530 whole entry partner, species assumed): as the sequence (O75530 whole entry partner, species assumed) above
Chain of EZH2 (Q15022 whole entry partner, species assumed): as the sequence (Q15022 whole entry partner, species assumed) above

What is called inhibition is the drop in the measured response relative to a control, in per cent. Take `CSc1cc(C)[nH]c(=O)c1CNC(=O)c1cc(-c2cnc(N3CCCCC3)nc2)c2c(c1C)OC(C)(C1CCN(CC(F)(F)F)CC1)O2` (stereo not shown) [Compound 39, 2,4-dimethyl-N-((6-methyl-4-(methylthio)-2-oxo-1,2-dihydropyridin-3-yl)methyl)-7-(2-(piperidin-1-yl)pyrimidin-5-yl)-2-(1-(2,2,2-trifluoroethyl)piperidin-4-yl)benzo[d][1,3]dioxole-5-carboxamide]: the inhibition at 0.005 µM against EZH1 worked out at 20.5%; on EZH2 (5nM test substance), 62%. For the same compound, the inhibition at 1 µM in the assay on Lovo cells was at least 70%; with G401 cells it was 30 to 70%; in the assay with MKN-45 cells, at most 30%; in the assay on SW-13 cells, at most 30%; in the assay on MIA-PaCa-2 cells it was at most 30%; in the assay on NCI-H1299 cells, at most 30%.

Consider `CSc1cc(C)[nH]c(=O)c1CNC(=O)c1cc(-c2cnc(N(C)C)nc2)c2c(c1C)OC(C)([C@H]1CC[C@H](N(C)CC(F)(F)F)CC1)O2` (relative stereo) [Compound 22, 7-(2-(dimethylamino)pyrimidin-5-yl)-2,4-dimethyl-2-(trans-4-(methyl(2,2,2-trifluoroethyl)amino)cyclohexyl)-N-((6-methyl-4-(methylthio)-2-oxo-1,2-dihydropyridin-3-yl)methyl)benzo[d][1,3]dioxole-5-carboxamide], for which the inhibition at 0.005 µM against EZH1 is 53.1%; on EZH2 (5nM test substance), 81%. Also, the inhibition at 1 µM is at least 70% in the assay with Lovo cells; 30 to 70% in the assay with G401 cells; 30 to 70% with MKN-45 cells; at most 30% with SW-13 cells; at most 30% in the assay with MIA-PaCa-2 cells; at most 30% in the assay on NCI-H1299 cells.

As to `CSc1cc(C)[nH]c(=O)c1CNC(=O)c1cc(-c2ccc(N3C[C@@H](C)O[C@@H](C)C3)nc2)c2c(c1C)OC(C)([C@H]1CC[C@H](N(C)CCc3ccccc3)CC1)O2` (stereo partly drawn) [Compound 112, 7-(6-((2S,6R)-2,6-dimethylmorpholino)pyridin-3-yl)-2,4-dimethyl-2-(trans-4-(methyl(phenethyl)amino)cyclohexyl)-N-((6-methyl-4-(methylthio)-2-oxo-1,2-dihydropyridin-3-yl)methyl)benzo[d][1,3]dioxole-5-carboxamide], the inhibition at 0.005 µM on EZH1 is 24.3%; against EZH2 (5nM test substance) it was 58.5%. The inhibition at 0.01 µM on EZH1 was found to be 40.7%; at EZH2 it was 97%. Also, the inhibition at 1 µM with Lovo cells is at least 70%; in the assay on G401 cells, at least 70%; in the assay with MKN-45 cells, 30 to 70%; in the assay on SW-13 cells, 30 to 70%; with MIA-PaCa-2 cells it was at most 30%; with NCI-H1299 cells it was at most 30%.

Turning to `CSc1cc(C)[nH]c(=O)c1CNC(=O)c1cc(-c2ccc(N3C[C@@H](C)O[C@@H](C)C3)nc2)c2c(c1C)OC(C)(C1CCN(C(C)C)CC1)O2` (single isomer, unassigned) [Compound 51], the values for the inhibition at 0.005 µM against EZH1 and on EZH2 (5nM test substance) were 80.2% and 99.3%, respectively. Further, the inhibition at 0.01 µM against EZH1 was 93%; against EZH2, 99.5%. Also, the “% inhibition rate LoVo” value in the assay with Lovo cells is given as “+++ (+++: ≥70%)”. In addition, the “% inhibition rate G401” value in the assay on G401 cells was “+++ (+++: ≥70%)”. The inhibition at 1 µM with MKN-45 cells is at most 30%; with SW-13 cells it was 30 to 70%; with MIA-PaCa-2 cells it was at most 30%; in the assay on NCI-H1299 cells, 30 to 70%.

Take `CSc1cc(C)[nH]c(=O)c1CNC(=O)c1cc(-c2ccc(N3CCOCC3)nc2)c2c(c1C)OC(C)(C1CCN(CC(F)(F)F)CC1)O2` (single isomer, unassigned) [Compound 62, 2,4-dimethyl-N-((6-methyl-4-(methylthio)-2-oxo-1,2-dihydropyridin-3-yl)methyl)-7-(6-morpholinopyridin-3-yl)-2-(1-(2,2,2-trifluoro)piperidin-4-yl)benzo[d][1,3]dioxole-5-carboxamide]: the inhibition at 0.005 µM amounted to 66.9% at EZH1 and 93.6% against EZH2 (5nM test substance). Further, the inhibition at 0.01 µM against EZH1 came out at 81.8%; against EZH2 it was 99.4%. For the same compound, in the assay with Lovo cells, the “% inhibition rate LoVo” value is “+++ (+++: ≥70%)”. Also, the “% inhibition rate G401” value in the assay with G401 cells was “+++ (+++: ≥70%)”. The inhibition at 1 µM was 30 to 70% in the assay with MKN-45 cells, 30 to 70% with SW-13 cells, at most 30% in the assay on MIA-PaCa-2 cells and 30 to 70% in the assay with NCI-H1299 cells.

Turning to `CSc1cc(C)[nH]c(=O)c1CNC(=O)c1cc(-c2ccc(N3CCOCC3)cc2)c2c(c1C)OC(C)([C@H]1CC[C@H](N(C)C)CC1)O2` (relative stereo) [Compound 9, 2-(trans-4-(dimethylamino)cyclohexyl)-2,4-dimethyl-N-((6-methyl-4-(methylthio)-2-oxo-1,2-dihydropyridin-3-yl)methyl)-7-(4-morpholinophenyl)benzo[d][1,3]dioxole-5-carboxamide], the inhibition at 0.005 µM on EZH1 turned out to be 86.1%; against EZH2 (5nM test substance) it was 98.6%. Besides, the inhibition at 1 µM is 30 to 70% with Lovo cells; 30 to 70% in the assay with G401 cells; at most 30% with MKN-45 cells; 30 to 70% with SW-13 cells; at most 30% with MIA-PaCa-2 cells; at most 30% with NCI-H1299 cells.

As to `CSc1cc(C)[nH]c(=O)c1CNC(=O)c1cc(-c2ccc(N3C[C@@H](C)O[C@@H](C)C3)nc2)c2c(c1C)OC(C)([C@H]1CC[C@H](N(C)CC(F)(F)F)CC1)O2` (single isomer, unassigned) [Compound 107], at EZH1, the inhibition at 0.005 µM came to 39.3%. In addition, the “Enzyme inhibition % EZH2” value at EZH2 (5nM test substance, 0.005 µM) is 41.7%. For the same compound, the inhibition at 1 µM in the assay with Lovo cells is at least 70%; in the assay with MKN-45 cells, at most 30%; in the assay on SW-13 cells, at most 30%; in the assay on MIA-PaCa-2 cells, at most 30%; with NCI-H1299 cells it was at most 30%. Moreover, in the assay on G401 cells, the “% inhibition rate G401” value is listed as “+++ (+++: ≥70%)”.

Take `COC(CN(C)[C@H]1CC[C@H](C2(C)Oc3c(-c4ccc(N5C[C@@H](C)O[C@@H](C)C5)nc4)cc(C(=O)NCc4c(SC)cc(C)[nH]c4=O)c(C)c3O2)CC1)OC` (stereo partly drawn) [Compound 31, 2-(trans-4-((2,2-dimethoxyethyl)(methyl)amino)cyclohexyl)-7-(6-((2S,6R)-2,6-dimethylmorpholino)pyridin-3-yl)-2,4-dimethyl-N-((6-methyl-4-(methylthio)-2-oxo-1,2-dihydropyridin-3-yl)methyl)benzo[d][1,3]dioxole-5-carboxamide]: the inhibition at 0.005 µM was found to be 67.3% on EZH1 and 75.6% at EZH2 (5nM test substance). The inhibition at 1 µM is at least 70% in the assay with Lovo cells; 30 to 70% in the assay on G401 cells; 30 to 70% in the assay with MKN-45 cells; 30 to 70% in the assay with SW-13 cells; at most 30% in the assay with MIA-PaCa-2 cells; at most 30% in the assay on NCI-H1299 cells.

For `CSc1cc(C)[nH]c(=O)c1CNC(=O)c1cc(-c2ccc3c(c2)OCO3)c2c(c1C)OC(C)(C1CCN(CC(F)(F)F)CC1)O2` (stereo not shown) [Compound 94, 2,7-dimethyl-N-((6-methyl-4-(methylthio)-2-oxo-1,2-dihydropyridin-3-yl)methyl)-2-(1-(2,2,2-trifluoroethyl)piperidin-4-yl)-[4,5'-bibenzo[d][1,3]dioxole]-6-carboxamide], the inhibition at 0.005 µM against EZH1 was 25.3%; at EZH2 (5nM test substance), 65.1%. In addition, the inhibition at 0.01 µM came to 28.5% at EZH1 and 82% on EZH2. Moreover, the inhibition at 1 µM with Lovo cells was at least 70%; in the assay on G401 cells, at most 30%; in the assay on MKN-45 cells, at most 30%; in the assay on SW-13 cells, at most 30%; with MIA-PaCa-2 cells, at most 30%; in the assay on NCI-H1299 cells, at most 30%.

Consider `COc1ccc(F)cc1-c1cc(C(=O)NCc2c(SC)cc(C)[nH]c2=O)c(C)c2c1OC(C)([C@H]1CC[C@H](N(C)C)CC1)O2` (relative stereo) [Compound 12, 2-(trans-4-(dimethylamino)cyclohexyl)-7-(5-fluoro-2-methoxyphenyl)-2,4-dimethyl-N-((6-methyl-4-(methylthio)-2-oxo-1,2-dihydropyridin-3-yl)methyl)benzo[d][1,3]dioxole-5-carboxamide], for which the inhibition at 0.005 µM on EZH1 amounted to 80.5%; against EZH2 (5nM test substance), 99.2%. In addition, the inhibition at 1 µM in the assay with Lovo cells is 30 to 70%; with G401 cells, 30 to 70%; in the assay on MKN-45 cells it was at most 30%; with SW-13 cells, 30 to 70%; in the assay with MIA-PaCa-2 cells, at most 30%; in the assay with NCI-H1299 cells it was at most 30%.
